Where two headings read alike, the source gives them in different places.
Target: T1, human recombinant COX2 (hCOX2) (UniProt P35354)
T1 sequence (P35354 1-604): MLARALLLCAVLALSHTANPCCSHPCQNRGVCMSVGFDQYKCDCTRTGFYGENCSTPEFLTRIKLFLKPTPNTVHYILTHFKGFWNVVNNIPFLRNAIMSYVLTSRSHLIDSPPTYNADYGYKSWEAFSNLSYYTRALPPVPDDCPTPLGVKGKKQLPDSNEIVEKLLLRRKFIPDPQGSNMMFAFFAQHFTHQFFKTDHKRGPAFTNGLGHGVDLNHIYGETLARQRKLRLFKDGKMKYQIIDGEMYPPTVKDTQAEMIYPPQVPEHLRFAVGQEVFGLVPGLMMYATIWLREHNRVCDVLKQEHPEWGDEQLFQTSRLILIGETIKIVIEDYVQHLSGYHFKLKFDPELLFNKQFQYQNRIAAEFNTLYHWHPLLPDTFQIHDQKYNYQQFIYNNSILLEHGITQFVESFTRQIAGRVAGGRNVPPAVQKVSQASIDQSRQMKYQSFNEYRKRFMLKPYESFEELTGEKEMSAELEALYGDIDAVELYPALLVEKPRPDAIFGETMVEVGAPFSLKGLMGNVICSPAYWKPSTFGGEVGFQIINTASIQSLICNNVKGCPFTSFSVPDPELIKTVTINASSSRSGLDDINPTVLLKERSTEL
Assay: LCMS-based COX2 enzymatic inhibition assay (PGE2 quantification)
Type: biochemical
Design: COX2 2 minutes pge2/pge2d4 area ratio Avg; other: 2 minutes; readout pge2/pge2d4 area ratio; average; COX2 2 minutes pge2/pge2d4 area ratio Avg; LLE; average LLE; COX2 2 minutes pge2 area (counts) Avg; readout pge2 area (counts); other: 2 min; "ovine COX2 (oCOX2), human recombinant COX2 (hCOX2)"
Conditions: for COX2 2 minutes pge2/pge2d4 area ratio Avg. LLE / COX2 2 minutes pge2 area (counts) Avg. LLE / COX2 10 minutes pge2 area (counts) Avg. LLE: average LLE; for IC50: average
Method in brief: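 Ovine COX-1 (0.1 μg) or human recombinant COX2 (0.2 μg) in 100 mM Tris.HCl pH 8.0 with hematin and epinephrine, preincubated with inhibitor 10 min at 37 °C. Reaction with 5 μM arachidonic acid stopped after 2 min with HCl; PGE2 quantified by LC-MS-MS. IC50 from 12 concentrations in triplicate.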

[1] = 2 minutes, readout pge2/pge2d4 area ratio
[2] = 2 minutes, readout pge2/pge2d4 area ratio, read-out: COX2 2 minutes pge2/pge2d4 area ratio Avg. IC50
[3] = 2 minutes, readout pge2 area (counts)
[4] = 2 minutes, readout pge2 area (counts), read-out: COX2 2 minutes pge2 area (counts) Avg. IC50
[5] = 10 minutes, readout pge2 area (counts)
[6] = read-out: COX2 2 minutes pge2/pge2d4 area ratio Avg. IC50 (microM), 2 minutes, readout pge2/pge2d4 area ratio

COX2 2 minutes pge2/pge2d4 area ratio Avg. LLE [1]	IC50 [2] [µM]	COX2 2 minutes pge2 area (counts) Avg. LLE [3]	IC50 [4] [µM]	Structure (SMILES)	COX2 10 minutes pge2 area (counts) Avg. LLE [5]	IC50 [6] [µM]	IC50 (10 minutes, readout pge2 area (counts), read-out: COX2 10 minutes pge2 area (counts) Avg. IC50) [µM]
5.484	0.268	5.518	0.255	CS(=O)(=O)c1ccc(-c2cncc(SCc3ccon3)n2)cc1 [Compound 148]			
4.592	0.425	4.629	0.391	CS(=O)(=O)c1ccc(-c2cnc(N)c(NCc3cccs3)n2)cc1 [Compound 165]			
4.383	2.38	4.367	2.48	COc1ncc(-c2ccc(S(C)(=O)=O)cc2)nc1NCc1ccncc1 [Compound 230]			
4.567	1.5	4.663	1.32	CS(=O)(=O)c1ccc(-c2cncc(SCc3cnoc3)n2)cc1 [Compound 213]			
4.417	4.61	4.469	4.09	CS(=O)(=O)c1ccc(-c2cncc(NC[C@H]3CCCO3)n2)cc1 [Compound 263]			
4.751	0.0888	4.838	0.0733	Cc1ncc(NCc2cccs2)nc1-c1ccc(S(C)(=O)=O)cc1 [Compound 103]			
4.491	0.409	4.597	0.319	COc1ncc(NCc2cncs2)nc1-c1ccc(S(C)(=O)=O)cc1 [Compound 163]			
3.645	0.0839	3.594	0.106	COCc1ccc(NCc2cccs2)nc1-c1ccc(S(C)(=O)=O)cc1 [Compound 100]			
2.229	2.41	2.107	2.35	CS(=O)(=O)c1ccc(-c2cncc(OCc3cccs3)c2)cc1 [Compound 232]			
2.212	0.127	2.325	0.095	CS(=O)(=O)c1ccc(-n2ccc3ccc(OCc4cccs4)nc32)cc1 [Compound 122]			
				CS(=O)(=O)c1ccc(-c2cncc(C#Cc3cccs3)n2)cc1 [Compound 320]		5.2	
5.411	0.0984	5.451	0.0934	CS(=O)(=O)c1ccc(-c2cncc(NCc3ccoc3)n2)cc1 [Compound 110]			
1.917	4.15	2.088	3.25	COc1cc(S(C)(=O)=O)ccc1-c1cccc(NCc2cccs2)n1 [Compound 259]			
5.442	0.0671	4.51	0.942	CS(=O)(=O)c1ccc(-c2nc(NCc3cccs3)cnc2N)cc1 [Compound 90]			
4.221	4.26	4.307	2.35	COc1ncc(-c2ccc(S(C)(=O)=O)cc2)nc1NCc1ccccn1 [Compound 260]			
3.568	0.142	3.634	0.122	CS(=O)(=O)c1ccc(-n2ccc3ncc(NCc4cccs4)nc32)cc1 [Compound 126]			

COX2 2 minutes pge2/pge2d4 area ratio Avg. LLE [1]	IC50 [2] [µM]	COX2 2 minutes pge2 area (counts) Avg. LLE [3]	IC50 [4] [µM]	Structure (SMILES)	COX2 10 minutes pge2 area (counts) Avg. LLE [5]	IC50 [6] [µM]	IC50 (10 minutes, readout pge2 area (counts), read-out: COX2 10 minutes pge2 area (counts) Avg. IC50) [µM]
5.784	0.144	5.809	0.139	COc1ncc(NCc2cccs2)nc1-c1ccc(S(C)(=O)=O)cn1 [Compound 128]			
4.092	2.54	4.092	2.5	COc1ncc(NCc2ncco2)nc1-c1ccc(S(C)(=O)=O)cc1 [Compound 236]			
5.719	0.0112	5.729	0.0112	COc1ncc(OCc2ccoc2)nc1-c1ccc(S(C)(=O)=O)cc1 [Compound 22]			
4.451	0.158	3.942	0.975	CS(=O)(=O)c1ccc(-c2cncc(Oc3ccccc3)n2)cc1 [Compound 132]			
4.781	0.361	4.751	0.381	CS(=O)(=O)c1ccc(-c2nc(NCc3cccs3)cnc2C#N)cc1 [Compound 159]			
4.695	0.116	4.215	0.233	Cc1ncc(OCc2cccs2)nc1-c1ccc(S(C)(=O)=O)cc1 [Compound 119]			
2.294	0.0991	2.242	0.113	CS(=O)(=O)c1ccc(-c2cnc3ccn(Cc4cccs4)c3c2)cc1 [Compound 111]			
3.1763	2.4	3.075	2.73	CS(=O)(=O)c1ccc(-c2cccc(NCc3ncco3)n2)cc1 [Compound 231]			
6.031	0.297	6.197	0.174	COc1ncc(NCc2ccon2)nc1-c1ccc(S(C)(=O)=O)cc1 [Compound 152]			
4.174	0.447	4.01	0.52	CS(=O)(=O)c1ccc(-c2cncc(OCc3ccccc3)n2)cc1 [Compound 172]			
4.28	4.09	4.347	3.49	CS(=O)(=O)c1ccc(-c2nc(NCc3cccs3)cnc2C(N)=O)cc1 [Compound 257]			
				CS(=O)(=O)c1ccc(-c2cccc(C[C@H](O)c3cccs3)n2)cc1 [Compound 300]		5.2	
3.956	0.359	3.972	0.349	COc1ccc(-c2ccc(S(C)(=O)=O)nc2)nc1NCc1cccs1 [Compound 158]			
1.703	3.15			CS(=O)(=O)c1ccc(-c2cnc3cnn(Cc4cccs4)c3c2)cc1 [Compound 244]			
4.632	3.16	4.621	3.33	Cn1ccc(CNc2cncc(-c3ccc(S(C)(=O)=O)cc3)n2)n1 [Compound 245]			

Structure (SMILES)	COX2 2 minutes pge2/pge2d4 area ratio Avg. LLE [1]	IC50 [2] [µM]	COX2 2 minutes pge2 area (counts) Avg. LLE [3]	IC50 [4] [µM]	COX2 10 minutes pge2 area (counts) Avg. LLE [5]	IC50 [6] [µM]	IC50 (10 minutes, readout pge2 area (counts), read-out: COX2 10 minutes pge2 area (counts) Avg. IC50) [µM]
CC(C)COc1cncc(-c2ccc(S(C)(=O)=O)cc2)n1 [Compound 293]	3.394		3.394		3.394	5.2	
CN1CCN(c2cncc(-c3ccc(S(C)(=O)=O)cc3)n2)CC1 [Compound 287]	5.044		5.044		5.574	5.2	1.54
CS(=O)(=O)c1ccc(-c2cncc(OCc3ccc(F)cc3)n2)cc1 [Compound 294]			2.694			5.2	
COc1ncc(NCc2cocn2)nc1-c1ccc(S(C)(=O)=O)cc1 [Compound 291]	3.954		3.954			5.2	
CS(=O)(=O)c1ccc(-c2cnc3cn(Cc4cccs4)nc3n2)cc1 [Compound 288]	2.844		2.844			5.2	
CN1CC[C@@H](CNc2cncc(-c3ccc(S(C)(=O)=O)cc3)n2)C1 [Compound 306]			4.594			5.2	
CS(=O)(=O)c1ccc(-c2cncc(NCc3ncc[nH]3)n2)cc1 [Compound 279]	4.334		4.334			5.2	
